Measured values as given in US11485751B2, “Apramycin derivatives” (WAYNE STATE UNIVERSITY, priority 2017, dated 2022).
Values after ≈ are worked out from the molar mass of the structure shown. Where two headings read alike, the source gives them in different places.

How the values were obtained:
[1] = tested on: human cytosolic ribosomes; test: in-vitro translation assay, human cytosolic ribosomes; type: biochemical
Procedure, shortened: (§1)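 Each ribosome preparation (bacterial, human chimeric as the mitochondrial model, rabbit reticulocyte as the cytosolic model) drives in-vitro translation with the test compound present. Inhibition of translation gives the IC50.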

WT clinical isolates = test: MIC broth microdilution, WT; type: cell-based; settings: read-out: MIC WT, clinical isolates, IMM Univ. Zurich; wild type
Procedure, shortened: (§2)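 MICs obtained by broth microdilution following CLSI M07-A10, tested against clinical isolates from the Institute of Medical Microbiology, Univ. Zurich; values in μg/ml.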

[2] = tested on: clinical isolates carrying APH(3′)-VI; test: MIC broth microdilution, APH(3′)-VI; type: cell-based; settings: IMM Univ. Zurich
Excerpt: (§3) Minimal inhibitory concentrations (MIC) have been determined by broth microdilution assays (CLSI. Methods for Dilution Antimicrobial Susceptibility Tests for Bacteria That Grow Aerobically; Approved Standard—Tenth Edition. CLSI document M07-A10. Wayne, Pa.: Clinical and Laboratory Standards Institute; 2015.).
(§4) Minimal inhibitory concentrations (MICs, […]) against clinical isolates from Institute of Medical Microbiology, Univ. Zurich, and the IC50 values for bacterial, human mitochondrial and human cytosolic ribosomes are indicated.

[3] = tested on: clinical isolates carrying AAC(3)-IV; test: MIC broth microdilution, AAC(3)-IV; type: cell-based; settings: clinical isolates, IMM Univ. Zurich; AAC(3)-IV; read-out: MIC AAC(3)-IV
Procedure, shortened: as §2

AG038 MRSA = test: Antibacterial activity, clinical isolate AG038; type: cell-based; set-up: unit not given here
Procedure, shortened: (§5)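 Reported as MIC; method was a CLSI-conforming microdilution in broth.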

[4] = tested on: K. pneum. AG269 AAC(3)-II AAC(6′)-I rmtB; test: Activity against G1405-methylated 16S-rRNA, clinical isolate AG269; type: cell-based
Excerpt: as §3

[5] = tested on: A baum. AG227 APH(3′)-I armA; test: Activity against G1405-methylated 16S-rRNA, clinical isolate AG227; type: cell-based
Excerpt: as §3

[6] = tested on: clinical isolates carrying APH(3′)-III; test: MIC broth microdilution, APH(3′)-III; type: cell-based; settings: IMM Univ. Zurich
Excerpt: as §3, §4

[7] = tested on: Engineered E. coli pH424 armA; test: Activity against G1405-methylated 16S-rRNA, E. coli pH424 armA; type: cell-based
Procedure, shortened: (§6)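 Read-out is the minimal inhibitory concentration, obtained in broth microdilution run according to CLSI guidelines (M07-A10).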

[8] = tested on: AG225, Acinetobacter baumannii pittii; test: MIC reference strain AG225; type: cell-based; settings: Acinetobacter baumannii, reference strain; read-out: MIC AG225 A. baumannii
Procedure, shortened: (§7)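 CLSI-conform broth microdilution testing gives the minimal concentration preventing visible growth of these reference strains.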

[9] = tested on: Enterob. AG302 AAC(3)-II AAC(6′)-I rmtC; test: Activity against G1405-methylated 16S-rRNA, clinical isolate AG302; type: cell-based
Excerpt: as §3

[10] = tested on: clinical isolates carrying APH(3′)-I; test: MIC broth microdilution, APH(3′)-I; type: cell-based; settings: IMM Univ. Zurich
Excerpt: as §3, §4

AG031 P. aer. APH(3′)-II = test: Antibacterial activity, clinical isolate AG031; type: cell-based; set-up: unit not given here
Procedure, shortened: as §5

[11] = tested on: SZ380, Mycobacterium smegmatis; test: MIC reference strain SZ380; type: cell-based; settings: Mycolicibacterium smegmatis, reference strain; read-out: MIC SZ380 M. smegmatis
Procedure, shortened: as §7

[12] = tested on: E. coli AG153 AAC(3)-II APH(3′)-II rmtB; test: Activity against G1405-methylated 16S-rRNA, clinical isolate AG153; type: cell-based
Excerpt: as §3

ATCC19977 M. abcessus = test: MIC reference strain ATCC19977; type: cell-based; settings: read-out: MIC ATCC19977 M. abcessus
Procedure, shortened: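 Values are minimal inhibitory concentrations, obtained by serial dilution of compound in broth according to CLSI guidance for aerobes.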

[13] = tested on: AG290, Enterobacter cloacae; test: MIC reference strain AG290; type: cell-based; settings: Enterobacter cloacae; reference strain; read-out: MIC AG290 E. cloacae
Procedure, shortened: as §7

[14] = tested on: Engineered E. coli pH430 WT; test: Activity, engineered E. coli pH430 WT; type: cell-based; settings: wild type
Procedure, shortened: as §6

AG001 E. coli WT = test: Antibacterial activity, clinical isolate AG001; type: cell-based; set-up: unit not given here
Procedure, shortened: as §5

[15] = tested on: AG212, Escherichia coli ATCC25922; test: MIC reference strain AG212; type: cell-based; settings: Escherichia coli; reference strain ATCC25922; read-out: MIC AG212 E. coli
Procedure, shortened: as §7

[16] = tested on: human mitochondrial ribosomes; test: in-vitro translation assay, human mitochondrial (human chimeric) ribosomes; type: biochemical
Procedure, shortened: as §1

[17] = tested on: AG220, Pseudomonas aeruginosa ATCC27853; test: MIC reference strain AG220; type: cell-based; settings: Pseudomonas aeruginosa, ATCC27853, reference strain ATCC27853; read-out: MIC AG220 P. aeruginosa
Procedure, shortened: as §7

[18] = tested on: AG215, Klebsiella pneumonia; test: MIC reference strain AG215; type: cell-based; settings: Klebsiella pneumoniae, reference strain; read-out: MIC AG215 K. pneumonia
Procedure, shortened: as §7

bacterial ribosomes = test: in-vitro translation assay, bacterial ribosomes; type: biochemical
Procedure, shortened: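 Inhibitory potency was determined as IC50 in in-vitro translation systems based on bacterial ribosomes, human chimeric (mitochondrial-type) ribosomes or rabbit reticulocyte (cytosolic) ribosomes.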

[19] = tested on: clinical isolates carrying APH(3′)-II; test: MIC broth microdilution, APH(3′)-II; type: cell-based; settings: read-out: MIC APH(3′)-II
Excerpt: as §3, §4

AG173 E. coli AAC(3)-IV = test: Antibacterial activity, clinical isolate AG173; type: cell-based
Procedure, shortened: as §5

[20] = clinical isolates, IMM Univ. Zurich, APH(3′)-II

Row | SMILES | IC50 [1] [µM] | MIC (WT clinical isolates) [µg/mL] | MIC [2] [µg/mL] | MIC [3] [µg/mL] | Antibacterial activity AG038 MRSA (AG038 MRSA) | Activity K. pneum. AG269 AAC(3)-II AAC(6′)-I rmtB [4] | Activity A baum. AG227 APH(3′)-I armA [5] | MIC [6] [µg/mL] | Activity E. coli pH424 armA [7] | MIC [8] [µg/mL] | Activity Enterob. AG302 AAC(3)-II AAC(6′)-I rmtC [9] | MIC [10] [µg/mL] | Antibacterial activity AG031 P. aer. APH(3′)-II (AG031 P. aer. APH(3′)-II) | MIC [11] [µg/mL] | Activity E. coli AG153 AAC(3)-II APH(3′)-II rmtB [12] | MIC [13] [µg/mL] | Activity E. coli pH430 WT [14] | Antibacterial activity AG001 E. coli WT (AG001 E. coli WT) | IC50 [16] [µM] | IC50 (bacterial ribosomes) [µM] | other results
1 | CNC1C(O)C2O[C@H](O[C@@H]3C(N)C[C@@H](N)C(O)[C@H]3OC3O[C@H](CN)[C@@H](O)[C@H]3O)C(N)C[C@@H]2O[C@@H]1O[C@H]1OC(CO)[C@@H](N)[C@H](O)C1O (stereo partly shown) [DC201] | 81 | 8 (≈ 11.9 µM) | 4 (≈ 5.96 µM) | 16 (≈ 23.9 µM) | 2-4 | 4 | 8-16 | 1 (≈ 1.49 µM) | 2 | 4 to 8 | 4 | 2 to 4 (≈ 2.98 to 5.96 µM) | 16 | 0.25 | 8 | 2 | 8 | 4 | 113 | 0.12 | MIC (ATCC19977 M. abcessus): 1 to 2 µg/mL (≈ 1.49 to 2.98 µM); MIC [15]: 4 µg/mL; MIC [17]: 4 to 8 µg/mL; MIC [18]: 2 µg/mL; MIC [19, 20]: 4 µg/mL (≈ 5.96 µM)
2 | CNC1C(O)C2O[C@H](O[C@@H]3C(N)C[C@@H](N)C(O)[C@H]3O[C@@H]3O[C@H](CNCCN)[C@@H](O)[C@H]3O)C(N)C[C@@H]2O[C@@H]1O[C@H]1OC(CO)[C@@H](N)[C@H](O)C1O (stereo partly shown) [DC214] | 85 |  | 4 (≈ 5.6 µM) | 8 to 16 (≈ 11.2 to 22.4 µM) | 4 | 2 | 4-8 | 1 (≈ 1.4 µM) | 2 | 8 | 1-2 | 2 (≈ 2.8 µM) | 8-16 | 0.25 | 2 | 1 to 2 | 4 | 2 | 178 | 0.09 | MIC [15]: 2 µg/mL; Antibacterial activity AG173 E. coli AAC(3)-IV (AG173 E. coli AAC(3)-IV): 16; MIC [17]: 8 µg/mL; MIC [18]: 1 µg/mL; MIC [19, 20]: 4 µg/mL (≈ 5.6 µM)
3 | NC[C@@H]1O[C@H](O[C@H]2[C@@H](O)[C@H](O[C@@H]3[C@@H](O)[C@H](N)C[C@H](N)[C@H]3O[C@H]3O[C@H](CO)[C@@H](O)[C@H](O)[C@H]3N)O[C@@H]2CO)[C@H](N)[C@@H](O)[C@@H]1O [paromomycin, reference compound] | 19 | 1 to 2 (≈ 1.62 to 3.25 µM) | > 128 | 128 (≈ 208 µM) |  |  |  | > 128 |  |  |  | > 128 |  |  |  |  |  |  | 86 | 0.02 | MIC [19]: > 128 µg/mL
